Experimental data as given in US7989631B2, “Hydrate forms of AMG706” (Amgen Inc., priority 2006, dated 2011).

How the values were obtained:
[1] = Solubility of AMG 706 anhydrous diphosphate salt in water over time; type: physicochemical; settings: thermodynamic from solid
Procedure: AMG 706 anhydrous diphosphate (˜100 mg) salt was added to 2 mL of water and placed on a rotator stirrer. Multiple runs were performed each at different temperatures between about room temperature to about 40° C. Solid was isolated at various time points by vacuum filtering the supernatant and the material was air-dried overnight.

[2] = Conversion of anhydrous diphosphate salt to monophosphate hydrate salt in water; type: physicochemical; settings: in the presence of water or aqueous co-solvent mixtures
Text: The anhydrous diphosphate sale of AMG 706 is currently manufactured as a crystalline form. This crystalline form is used in the table formulations for clinical trials.
The monophosphate dihydrate salt was isolated and characterized by various analytical tools for its physico-chemical properties. Interconversion kinetics of anhydrous diphosphate to monophosphate dihydrate was studied under various conditions.

CC1(C)CNc2cc(NC(=O)c3cccnc3NCc3ccncc3)ccc21 [AMG 706 anhydrous diphosphate, N-(2,3-dihydro-3,3-dimethyl-1H-indol-6-yl)-2-[(4-pyridinylmethyl)amino]-3-pyridinecarboxamide]
solubility at 0.5 hr ([1]; time 0.5 hr, RT, pH 2.6): 22 mg/mL | solubility at 1 hr ([1]; time 1.0 hr, RT, pH 2.7): 21 mg/mL | solubility at 3 hr ([1]; time 3.0 hr, RT, pH 2.7): 21 mg/mL | solubility at 6 hr ([1]; 40 C, pH 2.6): 20 mg/mL | solubility at 6 hr ([1]; RT, pH 2.6): 21 mg/mL | solubility at 24 hr ([1]; 40 C, pH 3.0): 26 mg/mL | solubility at 24 hr ([1]; RT, pH 2.9): 21 mg/mL | Solid-form stability (disproportionation/conversion) [2]: can disproportionate and convert to a more stable monophosphate hydrate salt
